In patent US5795907A, “Gastin and CCK receptor ligands” (James Black Foundation Limited, priority 1994, dated 1998):

Legend:
CCKB receptor = biological target: T1, CCKB receptor (Mus musculus, UniProt P56481); assay: CCKB receptor radioligand binding assay in mouse cortical membranes ([125I]-CCK8S); details: [125I]-CCK8S 200 pM, 150 min at 21±3°; for Ki: read-out: CCKB pKi (converted)
T1 construct: The cortex was dissected, weighed and homogenised in 40ml ice-cold buffer; tissue Charles River (supplier of the CD1 mice); host or cells: cerebral cortex membranes of male CD1 mice
T1 sequence (P56481 1-453): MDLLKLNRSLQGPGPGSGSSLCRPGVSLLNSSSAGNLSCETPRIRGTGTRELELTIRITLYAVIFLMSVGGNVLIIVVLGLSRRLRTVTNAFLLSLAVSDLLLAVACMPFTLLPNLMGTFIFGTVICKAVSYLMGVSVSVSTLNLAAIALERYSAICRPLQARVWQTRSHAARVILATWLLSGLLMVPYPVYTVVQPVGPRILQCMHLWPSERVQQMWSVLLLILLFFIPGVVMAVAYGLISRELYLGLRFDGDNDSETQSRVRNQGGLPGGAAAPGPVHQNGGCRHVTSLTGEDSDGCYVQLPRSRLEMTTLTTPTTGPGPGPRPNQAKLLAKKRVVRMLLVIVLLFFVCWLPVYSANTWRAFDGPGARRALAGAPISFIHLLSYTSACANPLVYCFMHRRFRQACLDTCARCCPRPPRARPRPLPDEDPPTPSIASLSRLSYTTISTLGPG
Outline: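 This was competition binding with tracer [125I]-CCK8S (200 pM solution added), run for 150 min at 21±3° on male CD1 mouse cortex membranes in pH 7.2 HEPES buffer with bacitracin. Filtration then gamma counting gave bound radioactivity. L-365,260 set the non-specific level.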

gastrin = biological target: T2, gastrin (Rattus norvegicus, UniProt P30553); assay: gastrin antagonist activity in an immature rat stomach assay (pentagastrin-stimulated acid secretion); details: cumulative pentagastrin dose-response curves after 60 min with drug; for Kb: read-out: Gastrin pKB (converted)
T2 construct: The stomach was lowered into a jacketed organ bath containing 40 ml of buffered solution; from tissue; host or cells: isolated perfused whole stomach of immature rats (ca. 21 days old)
T2 sequence (P30553 1-452): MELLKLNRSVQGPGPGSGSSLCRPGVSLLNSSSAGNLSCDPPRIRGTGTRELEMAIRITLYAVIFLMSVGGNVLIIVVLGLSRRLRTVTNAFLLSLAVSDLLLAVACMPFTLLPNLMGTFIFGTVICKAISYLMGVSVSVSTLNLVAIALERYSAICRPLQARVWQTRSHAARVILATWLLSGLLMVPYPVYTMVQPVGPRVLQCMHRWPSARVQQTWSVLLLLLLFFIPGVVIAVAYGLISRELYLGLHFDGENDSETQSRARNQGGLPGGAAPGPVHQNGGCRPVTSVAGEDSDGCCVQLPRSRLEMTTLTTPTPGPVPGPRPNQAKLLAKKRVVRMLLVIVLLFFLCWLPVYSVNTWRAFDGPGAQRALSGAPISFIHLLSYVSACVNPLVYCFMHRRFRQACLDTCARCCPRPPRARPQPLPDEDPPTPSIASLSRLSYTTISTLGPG
Procedure: The compounds of the examples were also tested for gastrin antagonist activity in an immature rat stomach assay. The procedure was as follows:
The oesophagus of immature rats (33-50 g, ca. 21 days old) was ligated at the level of the cardiac sphincter and the duodenal sphincter was cannulated. The stomach was excised and flushed with ca. 1 ml of unbuffered physiological saline solution. The fundus was punctured and cannulated. A further 4-5 ml of unbuffered solution was flushed through the stomach to ensure the preparation was not leaking. The stomach was lowered into a jacketed organ bath containing 40 ml of buffered solution containing 3×10^-8 M 5-methylfurmethide, maintained at 37° and gassed vigorously with 95% O2 /5% CO2. The stomach was continuously perfused at a rate of 1 ml min^-1 with unbuffered solution gassed with 100% O2 with the perfusate passing over an internally referenced pH-electrode fixed 12 cm above the stomach.
After 120 min of stabilisation the drugs were added directly to the serosal solution in the organ bath and after a further 60 min cumulative pentagastrin dose-response curves were started. Changes in acid secretion were monitored and the curves analysed according to Black et.al., Br. J. Pharmacol., 1985, 86, 581.

CCKA = biological target: T3, CCKA (Cavia porcellus, UniProt Q63931); assay: CCKA radioligand binding assay in guinea-pig pancreas membranes ([125I]-CCK8(S)); details: PD134,308 present, 150 minutes at 21±3°; for Ki: read-out: CCKA pKi (converted)
T3 construct: The pancreatata were homogenised in 40 ml ice-cold HEPES buffer using a polytron; from tissue; host or cells: pancreas membranes of male Dunkin Hartley guinea-pigs
T3 sequence (Q63931 1-430): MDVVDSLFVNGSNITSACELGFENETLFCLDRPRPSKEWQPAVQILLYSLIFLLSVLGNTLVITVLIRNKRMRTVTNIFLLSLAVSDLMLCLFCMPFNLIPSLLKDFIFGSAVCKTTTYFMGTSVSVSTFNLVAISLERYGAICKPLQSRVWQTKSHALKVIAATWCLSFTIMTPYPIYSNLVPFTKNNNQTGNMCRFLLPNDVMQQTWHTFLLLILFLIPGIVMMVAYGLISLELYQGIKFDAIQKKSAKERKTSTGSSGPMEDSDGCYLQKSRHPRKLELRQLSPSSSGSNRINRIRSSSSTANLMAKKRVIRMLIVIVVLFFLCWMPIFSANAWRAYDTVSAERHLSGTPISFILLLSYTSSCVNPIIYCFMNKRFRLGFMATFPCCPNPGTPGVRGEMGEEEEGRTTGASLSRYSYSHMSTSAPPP
Outline: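 Competition for [125I]-CCK8(S) (added as […] solution) ran for 150 min at 21±3° in HEPES pH 7.2. Membranes came from male guinea-pig pancreas at 1 mg/ml original wet weight, with 0.375 μM PD134,308 in the suspension. Filter-bound counts were gamma-counted; 100 nM L-364,718 (added solution) defined non-specific binding.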

Row | Ki (CCKB receptor) [nM] | Kb (gastrin) [nM] | Ki (CCKA) [nM] | CCKB pKi (CCKB receptor) | Gastrin pKB (gastrin) | CCKA pKi (CCKA) | Molecule
1 | 100 | 126 | 2000 |  |  |  | Cc1ccc(C(=O)O)cc1NC(=O)[C@H](Cc1ccccc1)NC(=O)c1cc2[nH]cnc2cc1C(=O)NCC12CC3CC(CC(C3)C1)C2 [Example 82, 5-(1S-(2-methyl-5-carboxyphenylaminocarbonyl)-2-phenylethylaminocarbonyl)-6-(1-adamantanemethylaminocarbonyl)-benzimidazole]
2 |  |  |  | 7.3 | 8.6 | 5.3 | O=C(O)c1ccc(C(=O)O)c(NC(=O)[C@H](Cc2ccccc2)NC(=O)c2cc3[nH]cnc3cc2C(=O)NCC23CC4CC(CC(C4)C2)C3)c1 [Example 78, 5-(1S-(2,5-dicarboxyphenylaminocarbonyl)-2-phenylethylaminocarbonyl)-6-(1-adamantanemethylaminocarbonyl)-benzimidazole]
3 |  |  |  | 8.3 | 9.1 | 5.4 | 5-(1S-(3,5-dicarboxyphenylaminocarbonyl)-2-phenylethylaminocarbonyl)-6-(1-adamantanemethylaminocarbonyl)-benzofuran [Example 122]
4 |  | 7.94 | 2510 | 7.8 |  |  | O=C(O)c1cc(NC(=O)[C@H](Cc2ccc(O)cc2)NC(=O)c2cc3[nH]cnc3cc2C(=O)NCC23CC4CC(CC(C4)C2)C3)cc(C(=O)O)c1 [Example 60, 5-(1S-(3,5-dicarboxyphenylaminocarbonyl)-2-(4-hydroxyphenyl)ethylaminocarbonyl)-6-(1-adamantanemethyaminocarbonyl)-benzimidazole]
5 |  | 63.1 | 6310 | 6.3 |  |  | CN(C(=O)[C@H](Cc1ccccc1)NC(=O)c1cc2[nH]cnc2cc1C(=O)NCC12CC3CC(CC(C3)C1)C2)c1cc(C(=O)O)cc(C(=O)O)c1 [Example 73, 5-(1S-(3,5-dicarboxyphenyl-N-(methyl)amino-carbonyl)-2-phenylethylaminocarbonyl)-6-(1-adamantane-methylaminocarbonyl)-benzimidazole]
6 | 1.26 | 0.316 | > 10000 |  |  |  | O=C(O)c1cc(NC(=O)C(Cc2c(F)c(F)c(F)c(F)c2F)NC(=O)c2cc3[nH]cnc3cc2C(=O)NCC23CC4CC(CC(C4)C2)C3)cc(C(=O)O)c1 (racemic) [Example 136, (±)-5-(1-(3,5-dicarboxyphenylaminocarbonyl)-2-pentafluorophenylethylaminocarbonyl)-6-(1-adamantanemethylaminocarbonyl)-benzimidazole]
7 | 158 | 5.01 | 6310 |  |  |  | C[C@H](NC(=O)c1cc2cc[nH]c2cc1C(=O)NCC12CC3CC(CC(C3)C1)C2)C(=O)Nc1cc(C(=O)O)cc(C(=O)O)c1 [Example 47, 5-(1S-(3,5-dicarboxyphenylaminocarbonyl)-ethylaminocarbonyl)-6-(1-adamantanemethylaminocarbonyl)-indole]
8 | 12.6 | 31.6 | 398 |  |  |  | O=C(NCC12CC3CC(CC(C3)C1)C2)c1cc2[nH]ccc2cc1C(=O)N[C@@H](Cc1ccccc1)C(=O)Nc1cccc(-c2nn[nH]n2)c1 [Example 100, 5-(1S-(3-tetrazolylphenylaminocarbonyl)-2-phenylethylaminocarbonyl)-6-(1-adamantanemethylaminocarbonyl)-indole]
9 | 200 | 126 | > 10000 |  |  |  | O=C(O)c1cc(NC(=O)[C@H](Cc2ccccc2)NC(=O)c2cc3cc[nH]c3cc2C(=O)NCC2CCC(O)CC2)cc(C(=O)O)c1 (single isomer, unassigned) [Example 109, 5-(1S-(3,5-dicarboxyphenylaminocarbonyl)-2-phenylethylaminocarbonyl)-6-(4-hydroxycyclohexanemethylaminocarbonyl)-indole]
10 | 3.98 | 0.2 | 5010 |  |  |  | O=C(O)c1cc(NC(=O)[C@H](Cc2cccc(F)c2)NC(=O)c2cc3[nH]cnc3cc2C(=O)NCC23CC4CC(CC(C4)C2)C3)cc(C(=O)O)c1 [Example 131, 5-(1S-(3,5-dicarboxyphenylaminocarbonyl)-2-(3-fluorophenyl)ethylaminocarbonyl)-6-(1-adamantanemethylaminocarbonyl)-benzimidazole]
11 |  |  |  | 5.6 | 6.2 | 5.5 | C[C@@H](NC(=O)C[C@@H]1CCCN1C(=O)c1cc2ccccc2cc1C(=O)NCC12CC3CC(CC(C3)C1)C2)C(=O)O [Example 16, 2-(2S-(1R-carboxyethylaminocarbonylmethyl)-pyrrolidinocarbonyl)-3-(1-adamantanemethylaminocarbonyl)-naphthalene]
12 |  |  |  | 7.9 | 8.2 | 6.1 | O=C(O)c1cc(NC(=O)[C@H](Cc2ccccc2)NC(=O)c2cc3ccccc3cc2C(=O)NCC23CC4CC(CC(C4)C2)C3)cc(C(=O)O)c1 [Example 15, 2-(1S-(3,5-dicarboxyphenylaminocarbonyl)-2-phenylethylaminocarbonyl)-3-(1-adamantanemethylaminocarbonyl)-naphthalene]
13 | 2510 | 20 | 6310 |  |  |  | CC(C)(C)C(=O)OCOC(=O)c1cc(NC(=O)[C@H](Cc2ccccc2)NC(=O)c2cc3cc[nH]c3cc2C(=O)NCC23CC4CC(CC(C4)C2)C3)cc(C(=O)OCOC(=O)C(C)(C)C)c1 [Example 33, 5-(1S-(3,5-dipivaloyloxymethyloxycarbonylphenylaminocarbonyl)-2-phenylethylaminocarbonyl)-6-(1-adamantanemethylaminocarbonyl)-indole]
14 |  |  |  | 6.5 | 7.5 | 5.0 | 5-(1S-(3,5-dicarboxyphenylaminocarbonyl)-ethylaminocarbonyl)-6-(cycloheptanemethylaminocarbonyl)-indole and regioisomer with substituents at positions 5 and 6 reversed [Example 58]
15 |  |  |  | 8.2 | 8.3 | 5.8 | 3-(1S-(3,5-dicarboxyphenylaminocarbonyl)-2-phenylethylaminocarbonyl)-2-(1-adamantanemethylaminocarbonyl)-5-nitronaphthalene and its regioisomer with groups at positions 2 and 3 reversed [Example 55]
